Results on 19 compounds are retold here after ChEMBL document CHEMBL4406883, “Synthesis and structure-activity relationships of novel camphecene analogues as anti-influenza agents” (Bioorg Med Chem Lett, 2019).

Active and inactive are the calls of the source. The rule behind the calls is not given here.

Data set [1] has as its system Influenza A virus (A/Puerto Rico/8/1934(H1N1)). Format: functional, organism-based, pdm09.
The nature of the next data set: in vitro. The settings on record: dog, MDCK cells.
The nature of data set [2]: Cytotoxicity against dog MDCK cells assessed as cell death incubated for 48 hrs by MTT assay. It is filed as cell-based, Canis lupus familiaris. The settings on record: read-out: CTD50.
For data set [3], the system named is Influenza A virus (A/Puerto Rico/8/1934(H1N1)). Format: functional, organism-based. The settings on record: pdm09, 300 umol/l.
For data set [4] the test system is unchanged. It is filed as functional, organism-based. To be noted: pdm09, 300 umol/l. The source holds these as a separate data set.
[5] abbreviates: Influenza A virus, pdm09, MDCK, read-out: IC50.

Description for in vitro: Selectivity index, ratio of CTD50 for dog MDCK cells to IC50 for Influenza A virus (A/Puerto Rico/8/34 (H1N1)) pdm09 infected in MDCK cells

Regarding `CC1(C)[C@@H]2CC[C@@]1(C)/C(=N/CCSc1ccccn1)C2`, the concentration for half-maximal inhibition (IC50) in data set [1] (setting [5]) stood at 6 µM. Moreover, the selectivity ratio in “in vitro” stood at 91. Further, the CC50 at 48 h in data set [2] is 503 µM.
The like results for `CC1(C)[C@@H]2CC[C@@]1(C)/C(=N/CCSc1nc3ccccc3s1)C2` were, in that order, 19 µM, 20 and 383 µM.
Consider `CC1(C)[C@@H]2CC[C@@]1(C)/C(=N/CCN1CCC(O)CC1)C2`, for which, in data set [1], the half-maximal inhibitory concentration (IC50) result is reported as “Not Active”. The selectivity ratio in “in vitro” stood at 1. Further, the CC50 at 48 h in data set [2] was over 1030 µM.
On to `CC1(C)[C@@H]2CC[C@@]1(C)/C(=N/CCSC1=NCCS1)C2`, for which the half-maximal inhibitory concentration (IC50) in data set [1] (setting [5]) came out at 33 µM. In “in vitro”, the selectivity ratio was 23. In addition, the CC50 at 48 h in data set [2] is 753 µM.
The like results for `CC1(C)[C@@H]2CC[C@@]1(C)/C(=N/CCSc1ccc(Cl)cc1)C2` were, in that order, 47 µM, 4 and 170 µM.
The like results for `CC1CCN(CC/N=C2\C[C@H]3CC[C@]2(C)C3(C)C)CC1` were, in that order, 25 µM, 12 and 294 µM.
As for `CN1CCN(CC/N=C2\C[C@H]3CC[C@]2(C)C3(C)C)CC1`, the concentration for half-maximal inhibition (IC50) in data set [1] (setting [5]) came out at 45 µM. For the same compound, the selectivity ratio in the data set “in vitro” stood at 24. The CC50 at 48 h in data set [2] was determined as 1080 µM.
As for `CC1(C)[C@@H]2CC[C@@]1(C)/C(=N/CCO)C2`, in data set [1] (setting [5]), the half-inhibitory concentration (IC50) came out at 5000 µM. Further, in the data set “in vitro”, the selectivity ratio amounted to 500.
Regarding `CCN1CCN(CC/N=C2\C[C@H]3CC[C@]2(C)C3(C)C)CC1`, the IC50 in data set [1] (setting [5]) came to 101 µM. In addition, in “in vitro”, the selectivity ratio was found to be 2. Moreover, in data set [2], the CC50 at 48 h amounted to 222 µM.
The like results for `CC1(C)[C@@H]2CC[C@@]1(C)/C(=N/CCSc1nc3ccccc3[nH]1)C2` were, in that order, 21 µM, 20 and 406 µM.
As to `NC12CC3CC(CC(C3)C1)C2` [AMANTADINE], the IC50 in data set [1] (setting [5]) is 64 µM. For the same compound, the selectivity ratio in the data set “in vitro” is 4.
In the case of `CC(N)C12CC3CC(CC(C3)C1)C2` (stereo unspecified) [RIMANTADINE], in data set [1] (setting [5]), the IC50 came out at 67 µM. Besides, the selectivity ratio in the data set “in vitro” was found to be 5.
As to `NC(=O)c1ncn([C@@H]2O[C@H](CO)[C@@H](O)[C@H]2O)n1` [RIBAVIRIN], in data set [1] (setting [5]), the concentration for half-maximal inhibition (IC50) turned out to be 25 µM. The selectivity ratio in “in vitro” was over 81. Further, the CC50 at 48 h in data set [2] was over 2000 µM.
As to `CC1(C)[C@@H]2CC[C@@]1(C)/C(=N/CCSc1ncccn1)C2`, the concentration for half-maximal inhibition (IC50) in data set [1] (setting [5]) came out at 6 µM. For the same compound, the inhibition result in data set [3] was “Active”. For the same compound, the inhibition entry in data set [4] is “inactive”. In addition, the selectivity ratio in the data set “in vitro” came out at 183. The CC50 at 48 h in data set [2] was over 1020 µM.
For the compound `CC1(C)[C@@H]2CC[C@@]1(C)/C(=N/CCN1CCCCC1)C2`, the IC50 in data set [1] (setting [5]) turned out to be 27 µM. Also, the selectivity ratio in “in vitro” is 43. In addition, in data set [2], the CC50 at 48 h is over 1140 µM.
The like results for `Cn1ccnc1SCC/N=C1\C[C@H]2CC[C@]1(C)C2(C)C` were, in that order, 341 µM, 3 and 1130 µM.
The corresponding values for `CC1(C)[C@@H]2CC[C@@]1(C)/C(=N/CCN1CCNCC1)C2` are 37 µM, 33 and 1200 µM.
As for `CC1(C)[C@@H]2CC[C@@]1(C)/C(=N/CCN1CCCC1)C2`, in data set [1] (setting [5]), the IC50 was 12 µM. Besides, in the data set “in vitro”, the selectivity ratio came to 106. Moreover, the CC50 at 48 h in data set [2] was over 1260 µM.
Take `CC1(C)[C@@H]2CC[C@@]1(C)/C(=N/CCSc1nnc[nH]1)C2`: the IC50 in data set [1] (setting [5]) stood at 24 µM. In addition, the selectivity ratio in “in vitro” was 8. Moreover, the CC50 at 48 h in data set [2] was 197 µM.
